Assay results published in patent US6943187B2, “Pyrrolidine derivative hair growth compositions and uses” (GPI Nil Holdings, Inc., priority 1997, dated 2005).
Entries after “also recorded” stand apart in the source; their conditions may differ.

tested on: hair growth; assay: not given; conditions: topical, but not oral, application; cited from earlier work

SMILES | stimulation of hair growth
C=CC[C@@H]1/C=C(\C)C[C@H](C)C[C@H](OC)[C@H]2O[C@@](O)(C(=O)C(=O)N3CCCC[C@H]3C(=O)O[C@H](/C(C)=C/[C@@H]3CC[C@@H](O)[C@H](OC)C3)[C@H](C)[C@@H](O)CC1=O)[C@H](C)C[C@@H]2OC [FK506] | stimulates hair growth in a dose-dependent manner

target: FKBP12 (Homo sapiens, UniProt P62942); assay: Inhibition of peptidyl-prolyl isomerase (rotamase) activity, chymotrypsin-coupled assay (Ki test procedure); format: biochemical; conditions: apparent Ki, rotamase inhibition of FKBP, substrate N-succinyl-Ala-Ala-Pro-Phe-p-nitroanilide
Procedure: The inhibition of the prolyl peptidyl cis-trans isomerase activity of FKBP may be measured as an indicator of this affinity.
The cis-trans isomerization of an alanine-proline bond in a model substrate, N-succinyl-Ala-Ala-Pro-Phe-p-nitroanilide, is monitored spectrophotometrically in a chymotrypsin-coupled assay, which releases para-nitroanilide from the trans form of the substrate. The inhibition of this reaction caused by the addition of different concentrations of inhibitor is determined, and the data is analyzed as a change in first-order rate constant as a function of inhibitor concentration to yield the apparent K1 values.
In a plastic cuvette are added 950 ml of ice cold assay buffer (25 mM HEPES, pH 7.8, 100 mM NaCl), 10 ml of FKBP (2.5 mM in 10 mM Tris-Cl pH 7.5, 100 mM NaCl, 1 mM dithiothreitol), 25 ml of chymotrypsin (50 mg/ml in 1 mM HCl) and 10 ml of test compound at various concentrations in dimethyl sulfoxide.

Sequence of FKBP12 (P62942 whole entry, species assumed): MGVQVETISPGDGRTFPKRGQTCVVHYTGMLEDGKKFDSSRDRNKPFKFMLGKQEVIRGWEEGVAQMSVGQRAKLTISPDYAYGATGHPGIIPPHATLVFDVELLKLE

SMILES | Ki [nM]
CCC(C)(C)C(=O)C(=O)N1CCC[C@H]1C(=O)OCCCc1cc(OC)c(OC)c(OC)c1 [Compound 3, 3-(3,4,5-trimethoxyphenyl)-1-propyl (2S)-1-(3,3-dimethyl-1,2-dioxopentyl)-2-pyrrolidine-carboxylate] | 200
CCC(C)(C)C(=O)C(=O)N1CCC[C@H]1C(=O)OCCCc1ccc2c(c1)OCO2 [Compound 5, 3-(4,5-methylenedioxyphenyl)-1-propyl (2S)-1-(3,3-dimethyl-1,2-dioxopentyl)-2-pyrrolidine-carboxylate] | 170
CCC(C)(C)C(=O)C(=O)N1CCC[C@H]1C(=O)OCCCC1CCCCC1 [Compound 7, 3-cyclohexyl-1-propyl (2S)-1-(3,3-dimethyl-1,2-dioxopentyl)-2-pyrrolidinecarboxylate] | 200
CCC(C)(C)C(=O)C(=O)N1CCC[C@H]1C(=O)OCCCc1cc(OC)ccc1OC [Compound 14, 3-(2,5-dimethoxyphenyl)-1-propyl (2S)-1-(3,3-dimethyl-1,2-dioxopentyl)-2-pyrrolidine-carboxylate] | 250
CCC(C)(C)C(=O)C(=O)N1CCC[C@H]1C(=O)OCCc1cc(OC)c(OC)c(OC)c1 [Compound 16, 2-(3,4,5-trimethoxyphenyl)-1-ethyl (2S)-1-(3,3-dimethyl-1,2-dioxopentyl)-2-pyrrolidine-carboxylate] | 120
CCC(C)(C)C(=O)C(=O)N1CCC[C@H]1C(=O)OCCCc1cccnc1 [Compound 17, 3-(3-Pyridyl)-1-propyl (2S)-1-(3,3-dimethyl-1,2-dioxopentyl)-2-pyrrolidinecarboxylate] | 5
CCC(C)(C)C(=O)C(=O)N1CCC[C@H]1C(=O)OCCCc1ccccn1 [Compound 18, 3-(2-Pyridyl)-1-propyl (2S)-1-(3,3-dimethyl-1,2-dioxopentyl)-2-pyrrolidinecarboxylate] | 195
CCC(C)(C)C(=O)C(=O)N1CCC[C@H]1C(=O)OCCCc1ccncc1 [Compound 19, 3-(4-Pyridyl)-1-propyl (2S)-1-(3,3-dimethyl-1,2-dioxopentyl)-2-pyrrolidinecarboxylate] | 23
CC(C)(C)C(=O)C(=O)N1CCC[C@H]1C(=O)OCCCc1ccccc1 [Compound 21, 3-phenyl-1-propyl (2S)-1-(2-tert-butyl-1,2-dioxoethyl)-2-pyrrolidinecarboxylate] | 95
O=C(CCC1CCCCC1)C(=O)N1CCC[C@H]1C(=O)OCCCc1ccccc1 [Compound 22, 3-phenyl-1-propyl (2S)-1-(2-cyclohexyl-ethyl-1,2-dioxoethyl)-2-pyrrolidinecarboxylate] | 1020
O=C(CCC1CCCCC1)C(=O)N1CCC[C@H]1C(=O)OCCCc1cccnc1 [Compound 23, 3-(3-pyridyl)-1-propyl (2S)-1-(2-cyclohexylethyl-1,2-dioxoethyl)-2-pyrrolidinecarboxylate] | 1400
CC(C)(C)C(=O)C(=O)N1CCC[C@H]1C(=O)OCCCc1cccnc1 [Compound 24, 3-(3-pyridyl)-1-propyl (2S)-1-(2-tert-butyl-1,2-dioxoethyl)-2-pyrrolidinecarboxylate] | 3
CCC(C)(C)C(=O)C(=O)N1CCC[C@H]1C(=O)OCCC(c1ccccc1)c1ccccc1 [Compound 25, 3,3-diphenyl-1-propyl (2S)-1-(3,3-dimethyl-1,2-dioxopentyl)-2-pyrrolidinecarboxylate] | 5
CC(C)(C)C(=O)C(=O)N1CCC[C@H]1C(=O)OCCC(c1ccccc1)c1ccccc1 [Compound 28, 3,3-Diphenyl-1-propyl (2S)-1-(3,3-dimethyl-1,2-dioxobutyl)-2-pyrrolidinecarboxylate] | 5

tested on: C57 black 6 mice; assay: In vivo hair generation test, Experiment A (topical, shaved area); conditions: 30 μM topical in 20% propylene glycol, 3 applications over 5 days, after six weeks; listed as GPI 1046
From the text: Care was taken not to nick or cause abrasion to the underlaying dermal layers. The animals were in anagen growth phase, as indicated by the pinkish color of the skin. […] Hair growth was quantitated by the percent of shaved area covered by new hair growth during this time period.

SMILES | hair regrowth in the shaved area
CCC(C)(C)C(=O)C(=O)N1CCC[C@H]1C(=O)OCCCc1cccnc1 [Compound 17, 3-(3-Pyridyl)-1-propyl (2S)-1-(3,3-dimethyl-1,2-dioxopentyl)-2-pyrrolidinecarboxylate] | essentially, complete hair regrowth; also recorded: essentially complete hair regrowth
